According to patent publication US20230255872A1, “ORAL CARE COMPOSITIONS AND METHODS” (DENTHERAPY LTD, priority 2020, published 2023):
Where two headings read alike, the source gives them in different places.

Key:
[1] = Vickers microindentation erosive lesion rehardening model, MOK vs MOL (Example 3); settings: bovine enamel, treated twice a day for seven days, spray approx 0.1 ml, N=8
Protocol: Introduction. […] The objective of the study was to ascertain if formulation development for ToothBoost retained remineralizing efficacy. Four treatment groups were placed in the study: 1. MOK (legacy formulation), 2. Phosphate free ToothBoost MOL (development formulation), 3. 500 ppm fluoride solution made from MFP, 4. Deionised water. N=8 enamel specimens per treatment group.
Enamel blocks are prepared from sound disease free human molars or bovine incisors and mounted in 25 mm diameter resin discs. After curing the underside of the disc is flattened using p400 grit paper. […]
The discs are then rinsed under deionised water and sonicated for five minutes. Initial microhardness of the sound enamel is measured by microindentation to determine that the enamel is sufficiently mineralized for the purpose of the study and to record the microhardness of the sound enamel. […]
Method. […] The microhardness of the de-mineralized enamel is then measured and the enamel discs organised so that each group have a similar range of microhardness values.
The citric acid eroded bovine enamel specimens were then treated twice a day for seven days. […] At the end of day seven, the enamel specimens were rinsed in deionised water, dried and the micro hardness of the enamel was measured by Vickers microindentation to determine the extent of the re-mineralization of the enamel lesions. […]

[2] = Protocol: Introduction. The remineralisation potential of three formulations: deionised water, 500 ppm fluoride solution from MFP and fluoride free Toothboost MOL-15 formulation were tested in a standard microindentation erosive lesion rehardening model, as described above in example 3. The objective of this study was to ascertain if fluoride free Toothboost MOL-15 formulation has the potential to remineralise erosive lesions without the presence of fluoride.
Method. Five times a day for five days human enamel specimens with citric acid erosive lesions were sprayed with 0.15 g of the test formulations and incubated in artificial saliva (containing 1500 units/L of phosphatase) at 37° C. between treatments. The microhardness of the enamel specimens was remeasured after five days and the degree of re-mineralization calculated using the boundary conditions of 100% mineralized for the hardness of the initial enamel before the formation of the lesions and 0% mineralization for the hardness of the enamel after the formation of the lesion.

[3] = Further stain prevention cycling study (Example 8); parameters: species or system bovine
Protocol: Introduction. A cycling staining procedure as described in example 6 was again used to measure the staining prevention when bovine enamel was subjected to a cycling staining procedure after being treated with one of four formulations: ToothBoost MOL-6, a 3% solution of OPN pH adjusted to 7.0, a 1.25% solution of sodium bicarbonate pH adjusted to 7.0 and deionised water. The aim of the study was to rank the formulations in terms of their stain prevention capability when bovine enamel was treated with a combination of tea stain and chlorhexidine.
Method. The enamel cores were treated by spraying the assigned treatment onto the enamel face using a single actuation of the ToothBoost spray pack and incubating for two minutes.
The enamel specimens were then cycled between a 1% chlorhexidine solution, a solution of strong tea and artificial saliva for approximately ten cycles per day. At the end of the day of cycling the enamel was rinsed and allowed to dry before the enamel colour measured. The cycling continued for a total of three days of cycling. From the L*a*b* measurements the ΔE76 (change in perceivable colour) was calculated. ΔE76=1 is the smallest perceivable colour change that can be observed.
The cycling continued every day for three days.
After each set of cycling the enamel was rinsed with deionised water and allowed to dry before colour measurements were made. Fresh solutions were made at the start of each set of cycles.
Results. The change in colour of the enamel was calculated from the L*a*b* values where the ΔE76 (The difference between enamel colour before and after cycling) was determined from equation 1: […]

[4] = remark: listed apart in the source
Protocol: Introduction. The remineralisation potential of three formulations: deionised water, 1450 ppm fluoride solution from MFP and fluoride free BoostPaste MON-6 formulation were tested in a standard microindentation erosive lesion rehardening model as described above in example 3. The objective of this study was to ascertain if fluoride free Boostpaste MON-6 formulation has the potential to remineralise erosive lesions without the presence of fluoride.
Method. Twice a day for five days human enamel specimens with citric acid erosive lesions were brushed with the test formulations and incubated in artificial saliva (containing 1500 units/L of phosphatase) at 37° C. between treatments. The microhardness of the enamel specimens was remeasured each day for five days and the degree of re-mineralization calculated using the boundary conditions of 100% mineralized for the hardness of the initial enamel before the formation of the lesions and 0% mineralization for the hardness of the enamel after the formation of the lesion.

[5] = after the second round of treatments

For `F` [500 ppm fluoride solution, monofluorophosphate], the “remineralisation of erosive lesions (Vickers microhardness), statistical comparison” value [1] was “statistically (probability <0.05) better than deionised water”, the “remineralisation of erosive enamel lesions, statistical analysis” value ([2]; after 5 days of treatment) was “significant remineralisation” and the calculated remineralisation ([2]; human enamel, sprayed 0.15 g five times a day for five days, 100% = initial enamel hardness, 0% = after lesion) was “over 25%”.

In the case of “OPN solution: 3% solution of OPN (osteopontin) pH adjusted to 7.0”, the “protection from staining (ΔE76), statistical comparison” value (shortened to “protection from staining (ΔE76)”) ([3]; after the first set of treatments) is reported as “statistically more protection than sodium bicarbonate solution”, the “protection from staining (ΔE76)” value [3, 5] is reported as “statistically the same” and the “protection from staining (ΔE76)” value ([3]; after the third round of treatments) is reported as “statistically the same”. For the same compound, the “protection from staining (ΔE76)” value ([3]; after the third round of treatments, listed as OPN) was “statistically better than sodium bicarbonate”.

For `F` [1450 ppm fluoride solution, monofluorophosphate], the “remineralisation of erosive lesions, statistical comparison” value ([4]; brushed twice a day for five days) was “statistically better than deionised water” and the calculated remineralisation ([4]; human enamel, brushed twice a day, after five days of treatment, N=10) was “over 23%”.

For `O=C([O-])O.[Na+]` [sodium bicarbonate], the “protection from staining (ΔE76)” value [3, 5] was “statistically the same”.
